Several values for one entry are separate records, joined by “and”; a condition that tells them apart may be missing. Equal values may be shown once. Read-outs that look alike come from different tables or passages of the source.
Assay: Toxicokinetic study of AAI after single oral administration (plasma, UPLC-QQQ-MS/MS, NCA)
Assay type: in vivo, F344 rats
Details: for tmax: read-out: tmax
Description: For toxicokinetic study, forty-eight […] F344 rats (specific pathogen-free grade) were enrolled in the study, with equal numbers of males and females. All rats were purchased from Charles River Laboratory (Raleigh, NC, USA). All rats were confirmed to be healthy based on a series of physical health examinations. Rats were acclimated for 5 days at a temperature of 20–26 °C, humidity of 40–70% and a 12 h light/dark circle. The rats were randomly divided into four groups (n = 12 per group), with equal numbers of males and females in each group. The allocation was performed separately for each sex (female and male) based on body weight using a stratified randomization method. During the experiment, rats were fasted and had access to water ad libitum. To minimize confounding factors, treatments and measurements were randomized within each session. Cages from different groups were evenly distributed across racks in the same room to reduce bias from light and temperature. This study was approved by the Institutional Animal Care and Use Committee (IACUC) of the National Drug Safety Evaluation Center (Approval No. IACUC-2024-K011, 20 September 2024).
During the experiment, each rat received a single oral administration via gastric gavage. Rats in the control group were administered with 0.5% sodium carboxymethyl cellulose (CMC-Na) suspension. For the treatment groups, rats were administered with gavage solution containing 10, 30 and 100 mg/kg of AAI. The gavage solution was prepared by uniformly dispersing the reference standard of AAI in the 0.5% CMC-Na solution. After oral administration, blood samples were collected from the postorbital vein plex of rats and immediately placed in EDTA tubes. To capture potential reabsorption which might occur long after AAI administration, 15 blood sampling time points were established for each dose group. A sparse sampling approach was employed to avoid excessive blood loss in each rat. For each dosage, 12 rats were subdivided into two groups. For the first group, blood samples were collected from 6 rats at 10, 30, 60, 90, 120, 240, 420, and 600 min after AAI administration; for the second group, blood samples were collected from these 6 rats at 12, 14, 16, 18, 20, 22, and 24 h after AAI administration. Therefore, the experimental design ensured that six biological replicates were obtained for each sampling time point, enabling robust toxicokinetic analysis.
Rat plasma samples were prepared as follows: Blood was centrifuged at 13,200 rpm for 10 min. Then, 25 μL of retrieved plasma was transferred to 2 mL centrifuge tubes, followed by the addition of 75 μL of methanol/acetonitrile solution (v/v, 1∶1) containing indomethacin as internal standard (IS). After vortexing for 2 min and centrifugation for 10 min at 13,200 rpm, the supernatant was used as study samples for quantitative analysis. Quality control samples (QCs) and calibration standards were prepared by spiking blank plasma with different concentrations of AAI standard solution. The QCs and calibration standards were processed using identical procedures as the study samples.
A method of ultra-performance liquid chromatography coupled with triple quadrupole tandem mass spectrometry (UPLC-QQQ-MS/MS) was developed to achieve the quantitation of AAI in rat plasma. The LC-MS/MS analysis was performed using an Acquity UPLC I-Class system coupled with an Xevo TQ XS spectrometer (Waters, Milford, MA, USA). An Acquity UPLC BEH C18 column (2.1 mm × 50 mm, 1.7 μm, Waters, Milford, MA, USA) was employed for chromatographic separation. The mobile phases consisted of water containing 5 mmol/L ammonium formate/0.1% formic acid (A) and acetonitrile (B). The gradient elution was set as follows: 1–4 min, 10–90% B; 4–5 min, 90% B; 5–5.01 min, 90–10% B; 5.01–7 min, 10% B. The flow rate was set at 0.4 mL/min. The column temperature was maintained at 40 °C. A sample volume of 2 μL was injected for analysis. […]

[1] = 10 mg/kg single oral, rat plasma, mean ± SD
[2] = 30 mg/kg single oral, rat plasma, mean ± SD
[3] = 100 mg/kg single oral, rat plasma, mean ± SD
[4] = both sexes, F344, rat, plasma, po, 10 mg/kg, 10 mg/kg single oral, rat plasma, mean ± SD
[5] = both sexes, F344, rat, plasma, po, 30 mg/kg, 30 mg/kg single oral, rat plasma, mean ± SD
[6] = both sexes, F344, rat, plasma, po, 30 mg/kg, medium-dose (30 mg/kg), individual pooled profiles (animal pairs), Table S4
[7] = both sexes, F344, rat, plasma, po, 100 mg/kg, 100 mg/kg single oral, rat plasma, mean ± SD
[8] = high-dose (100 mg/kg), individual pooled profiles (animal pairs), Table S4, 100 mg/kg

Question: For `COc1cccc2c1cc([N+](=O)[O-])c1c(C(=O)O)cc3c(c12)OCO3` [AAI, Aristolochic acid I], which CL/F [1] is on record?
Answer: The CL/F was 1.66 ± 0.37 L/h.

Question: What about the Vd [1] of the same compound?
Answer: The Vd was 3.36 ± 1.97 L.

Question: And the CL/F [2]?
Answer: Its CL/F is 1.22 ± 0.30 L/h.

Question: And the Vd [2]?
Answer: Its Vd is 4.67 ± 0.81 L.

Question: And the CL/F [3]?
Answer: Its CL/F is 1.13 ± 0.59 L/h.

Question: And the Vd [3]?
Answer: The Vd was 8.42 ± 7.24 L.

Question: What about the AUC(0-t) (F344, rat, plasma, po, 10 mg/kg, low-dose (10 mg/kg), individual pooled profiles (animal pairs), Table S4) of the same compound?
Answer: The AUC(0-t) was 843 ng·h/mL.

Question: And the Cmax (F344, rat, plasma, po, 10 mg/kg, low-dose (10 mg/kg), individual pooled profiles (animal pairs), Table S4, read-out: Cmax)?
Answer: The Cmax was 562 ng/mL.

Question: What about the AUC(0-t) [4] of the same compound?
Answer: Its AUC(0-t) is 969 ± 140 ng·h/mL.

Question: What about the half-life [4] of the same compound?
Answer: Its half-life is 1.31 ± 0.51 h.

Question: And the Cmax (both sexes, F344, rat, plasma, po, 10 mg/kg, 10 mg/kg single oral, rat plasma, mean ± SD, read-out: Cmax)?
Answer: Its Cmax is 457 ± 129 ng/mL.

Question: What about the tmax [4] of the same compound?
Answer: Its tmax is 0.69 ± 0.6 h.

Question: What about the concentration at 14 h (both sexes, F344, rat, plasma, po, 10 mg/kg, low-dose (10 mg/kg oral), 14 h, individual rats M104,M105,M106,F104,F105,F106, below LLOQ set to zero) of the same compound?
Answer: The concentration at 14 h was 0 ng/mL.

Question: And the concentration at 16 h (both sexes, F344, rat, plasma, po, 10 mg/kg, low-dose (10 mg/kg oral), 16 h, individual rats M104,M105,M106,F104,F105,F106, below LLOQ set to zero)?
Answer: Its concentration at 16 h is 0 ng/mL.

Question: What about the concentration at 18 h (both sexes, F344, rat, plasma, po, 10 mg/kg, low-dose (10 mg/kg oral), 18 h, individual rats M104,M105,M106,F104,F105,F106, below LLOQ set to zero) of the same compound?
Answer: Its concentration at 18 h is 0 ng/mL.

Question: What about the concentration at 20 h (both sexes, F344, rat, plasma, po, 10 mg/kg, low-dose (10 mg/kg oral), 20 h, individual rats M104,M105,M106,F104,F105,F106, below LLOQ set to zero) of the same compound?
Answer: The concentration at 20 h was 0 ng/mL.

Question: What about the concentration at 22 h (both sexes, F344, rat, plasma, po, 10 mg/kg, low-dose (10 mg/kg oral), 22 h, individual rats M104,M105,M106,F104,F105,F106, below LLOQ set to zero) of the same compound?
Answer: Its concentration at 22 h is 0 ng/mL.

Question: And the concentration at 24 h (both sexes, F344, rat, plasma, po, 10 mg/kg, low-dose (10 mg/kg oral), 24 h, individual rats M104,M105,M106,F104,F105,F106, below LLOQ set to zero)?
Answer: Its concentration at 24 h is 0 ng/mL.

Question: And the AUC(0-t) (both sexes, F344, rat, plasma, po, 10 mg/kg, low-dose (10 mg/kg), individual pooled profiles (animal pairs), Table S4)?
Answer: Its AUC(0-t) is 825 ng·h/mL.

Question: What about the AUC(0-t) [5] of the same compound?
Answer: Its AUC(0-t) is 3950 ± 543 ng·h/mL.

Question: And the half-life [5]?
Answer: Its half-life is 2.79 ± 0.74 h.

Question: What about the Cmax (both sexes, F344, rat, plasma, po, 30 mg/kg, 30 mg/kg single oral, rat plasma, mean ± SD, read-out: Cmax) of the same compound?
Answer: The Cmax was 2450 ± 561 ng/mL.

Question: And the tmax [5]?
Answer: Its tmax is 0.58 ± 0.17 h.

Question: What about the concentration at 1.5 h (both sexes, F344, rat, plasma, po, 30 mg/kg, medium-dose (30 mg/kg oral), 1.5 h, individual rats M201,M202,M203,F201,F202,F203) of the same compound?
Answer: Its concentration at 1.5 h is 413 ng/mL.

Question: And the AUC(0-t) [6]?
Answer: Its AUC(0-t) is 3450 ng·h/mL.

Question: And the tmax [6]?
Answer: Its tmax is 0.5 h.

Question: What about the AUC(0-t) [7] of the same compound?
Answer: The AUC(0-t) was 17100 ng·h/mL.

Question: And the half-life [7]?
Answer: Its half-life is 3.01 ± 0.45 h.

Question: What about the Cmax (both sexes, F344, rat, plasma, po, 100 mg/kg, 100 mg/kg single oral, rat plasma, mean ± SD, read-out: Cmax) of the same compound?
Answer: Its Cmax is 9110 ± 2180 ng/mL.

Question: And the tmax [7]?
Answer: Its tmax is 1.17 ± 0.37 h.

Question: And the Cmax (both sexes, F344, rat, plasma, po, 100 mg/kg, high-dose (100 mg/kg), individual pooled profiles (animal pairs), Table S4, read-out: Cmax)?
Answer: The Cmax was 9010 ng/mL.

Question: And the tmax (both sexes, F344, rat, plasma, po, 100 mg/kg, high-dose (100 mg/kg), individual pooled profiles (animal pairs), Table S4)?
Answer: The tmax was 2 h.

Question: What about the “secondary elevation of plasma AAI concentration, time post-administration” value (high- and medium-dose groups (100, 30 mg/kg oral)) of the same compound?
Answer: Its value is 14 to 24 h.

Question: And the AUC0→t [8]?
Answer: The AUC0→t was 17484.11 ng·h/mL and 17260.39 ng·h/mL and 32135.80 ng·h/mL and 9262.46 ng·h/mL and 9698.81 ng·h/mL and 16821.21 ng·h/mL.

Question: What about the CL/F [8] of the same compound?
Answer: Its CL/F is 0.76 L/h and 0.74 L/h and 0.40 L/h and 2.04 L/h and 1.79 L/h and 1.07 L/h.

Question: What about the Cmax [8] of the same compound?
Answer: Its Cmax is 9980.23 ng/mL and 12351.60 ng/mL and 6490.96 ng/mL and 6245.89 ng/mL and 10563.14 ng/mL.

Question: And the Vd [8]?
Answer: Its Vd is 23.01 L and 3.33 L and 1.48 L and 11.28 L and 7.23 L and 4.20 L.
